Each molecule was assayed against T1, Programmed cell death protein 4 (Homo sapiens, UniProt Q53EL6) (assay: Inhibition of TPA-induced degradation of Pdcd4 (amino acid 39-91) expressed in human HEK293 cells assessed as minimum compound concentration required for 50% recovery of Pdcd4-luciferase signal incubated for 8 hrs by luciferase reporter gene assay).
T1 sequence (Q53EL6 whole entry): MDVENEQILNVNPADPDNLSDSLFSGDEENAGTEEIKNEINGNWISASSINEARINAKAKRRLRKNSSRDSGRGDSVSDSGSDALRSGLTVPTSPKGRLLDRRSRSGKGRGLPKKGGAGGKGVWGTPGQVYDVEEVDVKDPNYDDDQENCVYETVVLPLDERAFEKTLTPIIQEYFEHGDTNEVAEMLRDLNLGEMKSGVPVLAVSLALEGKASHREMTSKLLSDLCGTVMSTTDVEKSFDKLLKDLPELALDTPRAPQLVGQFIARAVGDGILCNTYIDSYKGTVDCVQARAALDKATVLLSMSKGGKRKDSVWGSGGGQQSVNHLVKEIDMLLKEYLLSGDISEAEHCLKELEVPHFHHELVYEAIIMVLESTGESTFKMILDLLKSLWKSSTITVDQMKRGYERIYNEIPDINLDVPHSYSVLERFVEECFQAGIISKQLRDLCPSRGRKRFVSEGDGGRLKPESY

`CCCCCCCCCCCCCCC[C@@H](O)C[C@H](O)C[C@H](O)C[C@H](O)C[C@H](O)C[C@@H]1OC(=O)C=C[C@@H]1O` [Cryptocaryol C] and `CCCCCCCCCCCCCCC[C@@H](O)C[C@H](O)C[C@H](O)C[C@H](O)C[C@@H]1OC(=O)C=C[C@@H]1O` [Cryptocaryol E] are within 1.5-fold of each other in EC50: 1.6 µM for the first, 1.8 µM for the second.

Going from `CCCCCCCCCCCCCCC[C@@H](O)C[C@H](O)C[C@H](O)C[C@H](O)C[C@H](O)C[C@H]1CC=CC(=O)O1` [Cryptocaryol A] to `CCCCCCCCCCCCCCC[C@H](C[C@H](O)C[C@H](O)C[C@H](O)C[C@H](O)C[C@H]1CC=CC(=O)O1)OC(C)=O` [Cryptocaryol B], the EC50 falls from 4.9 µM to 3 µM (1.6-fold). The second is the more potent here.

Compared with `CCCCCCCCCCCCCCC[C@H](C[C@H](O)C[C@H](O)C[C@H](O)C[C@H](O)C[C@@H]1OC(=O)C=C[C@@H]1O)OC(C)=O` [Cryptocaryol D], `CO[C@H]1C[C@@H]2CC[C@@H](C)[C@@](O)(O2)C(=O)C(=O)N2CCCC[C@H]2C(=O)O[C@H]([C@H](C)C[C@@H]2CC[C@@H](O)[C@H](OC)C2)CC(=O)[C@H](C)/C=C(\C)[C@@H](O)[C@@H](OC)C(=O)[C@H](C)C[C@H](C)/C=C/C=C/C=C/1C` [Rapamycin C-7, analog 4] is 30-fold lower in EC50: 1.5 µM for the first, 0.05 µM for the second. The second is the more potent here.
